Experimental data from ChEMBL document CHEMBL5291721, “A preclinical secondary pharmacology resource illuminates target-adverse drug reaction associations of marketed drugs” (Nat Commun, 2023).
One block for each compound: values may come before it.

Key:
[1] = molecular target: T1, Alpha-1A adrenergic receptor (Homo sapiens, UniProt P35348); format: functional, cell-based
T1 sequence (P35348 whole entry): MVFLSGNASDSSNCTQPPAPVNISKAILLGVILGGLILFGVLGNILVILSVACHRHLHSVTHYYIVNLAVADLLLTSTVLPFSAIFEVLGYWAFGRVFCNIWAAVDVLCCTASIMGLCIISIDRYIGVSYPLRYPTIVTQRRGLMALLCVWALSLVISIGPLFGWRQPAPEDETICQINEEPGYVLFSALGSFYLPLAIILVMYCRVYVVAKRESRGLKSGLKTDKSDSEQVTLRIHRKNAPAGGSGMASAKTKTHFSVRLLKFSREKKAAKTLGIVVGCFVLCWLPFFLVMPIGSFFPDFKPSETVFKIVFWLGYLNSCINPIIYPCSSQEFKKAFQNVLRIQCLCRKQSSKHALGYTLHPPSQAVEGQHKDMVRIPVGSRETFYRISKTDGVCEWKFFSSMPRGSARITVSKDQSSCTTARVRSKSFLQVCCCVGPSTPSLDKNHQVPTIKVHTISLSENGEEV

[2] = molecular target: T1, Alpha-1A adrenergic receptor; format: functional, cell-based; remark: listed apart in the source
[3] = molecular target: Gamma-aminobutyric acid receptor subunit alpha-1 (Rattus norvegicus, UniProt P62813)
[4] = molecular target: T1, Alpha-1A adrenergic receptor; format: functional, cell-based; remark: listed apart in the source
D(1A) dopamine receptor = D(1A) dopamine receptor (Homo sapiens, UniProt P21728); format: functional, cell-based
Adenosine receptor A2a = Adenosine receptor A2a (Homo sapiens, UniProt P29274)
[5] = molecular target: Sodium-dependent dopamine transporter (Homo sapiens, UniProt Q01959)
[6] = molecular target: Delta-type opioid receptor (Homo sapiens, UniProt P41143)
[7] = molecular target: 5-hydroxytryptamine receptor 2B (Homo sapiens, UniProt P41595); format: functional, cell-based
Histamine H2 receptor = Histamine H2 receptor (Homo sapiens, UniProt P25021); format: functional, cell-based
Thromboxane A2 receptor = molecular target: T2, Thromboxane A2 receptor (Homo sapiens, UniProt P21731)
T2 sequence (P21731 whole entry): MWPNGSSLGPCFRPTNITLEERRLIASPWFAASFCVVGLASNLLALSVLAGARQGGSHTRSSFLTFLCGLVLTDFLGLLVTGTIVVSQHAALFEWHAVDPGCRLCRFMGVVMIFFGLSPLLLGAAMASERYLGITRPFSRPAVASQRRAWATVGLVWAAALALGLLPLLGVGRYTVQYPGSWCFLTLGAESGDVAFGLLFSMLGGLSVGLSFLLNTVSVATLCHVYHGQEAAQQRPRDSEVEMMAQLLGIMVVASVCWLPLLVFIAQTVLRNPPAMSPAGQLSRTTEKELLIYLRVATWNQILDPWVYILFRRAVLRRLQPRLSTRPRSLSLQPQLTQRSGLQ

[8] = molecular target: T3, Gastrin/cholecystokinin type B receptor (Homo sapiens, UniProt P32239)
T3 sequence (P32239 whole entry): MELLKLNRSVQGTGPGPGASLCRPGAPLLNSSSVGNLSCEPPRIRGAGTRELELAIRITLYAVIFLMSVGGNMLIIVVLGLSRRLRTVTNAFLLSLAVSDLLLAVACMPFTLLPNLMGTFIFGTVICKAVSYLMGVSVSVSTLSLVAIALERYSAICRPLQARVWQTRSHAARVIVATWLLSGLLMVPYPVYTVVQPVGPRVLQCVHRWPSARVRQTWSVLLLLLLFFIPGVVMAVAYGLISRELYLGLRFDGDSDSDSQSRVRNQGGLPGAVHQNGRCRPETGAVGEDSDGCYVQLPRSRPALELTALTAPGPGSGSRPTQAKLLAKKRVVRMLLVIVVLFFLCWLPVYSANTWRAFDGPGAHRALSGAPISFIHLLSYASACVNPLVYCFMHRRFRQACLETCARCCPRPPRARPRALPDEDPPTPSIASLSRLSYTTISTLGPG

[9] = molecular target: T4, 5-hydroxytryptamine receptor 2C (Homo sapiens, UniProt P28335)
T4 sequence (P28335 whole entry): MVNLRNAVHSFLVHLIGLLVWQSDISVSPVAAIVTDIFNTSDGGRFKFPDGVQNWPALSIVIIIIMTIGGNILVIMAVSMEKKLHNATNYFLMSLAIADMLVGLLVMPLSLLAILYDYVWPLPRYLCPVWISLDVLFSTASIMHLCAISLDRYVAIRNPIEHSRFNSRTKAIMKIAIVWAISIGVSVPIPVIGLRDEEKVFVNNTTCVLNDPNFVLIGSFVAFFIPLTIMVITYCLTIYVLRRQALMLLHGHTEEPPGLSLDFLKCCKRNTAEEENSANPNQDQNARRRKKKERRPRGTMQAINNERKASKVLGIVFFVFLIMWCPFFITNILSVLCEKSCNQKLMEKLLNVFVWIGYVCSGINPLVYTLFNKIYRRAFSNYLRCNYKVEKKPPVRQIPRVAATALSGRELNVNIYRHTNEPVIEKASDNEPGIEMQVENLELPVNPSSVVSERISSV

[10] = molecular target: Glutamate receptor ionotropic, NMDA 1 (Rattus norvegicus, UniProt P35439)
[11] = molecular target: T5, 5-hydroxytryptamine receptor 1A (Homo sapiens, UniProt P08908); format: functional, cell-based
T5 sequence (P08908 whole entry): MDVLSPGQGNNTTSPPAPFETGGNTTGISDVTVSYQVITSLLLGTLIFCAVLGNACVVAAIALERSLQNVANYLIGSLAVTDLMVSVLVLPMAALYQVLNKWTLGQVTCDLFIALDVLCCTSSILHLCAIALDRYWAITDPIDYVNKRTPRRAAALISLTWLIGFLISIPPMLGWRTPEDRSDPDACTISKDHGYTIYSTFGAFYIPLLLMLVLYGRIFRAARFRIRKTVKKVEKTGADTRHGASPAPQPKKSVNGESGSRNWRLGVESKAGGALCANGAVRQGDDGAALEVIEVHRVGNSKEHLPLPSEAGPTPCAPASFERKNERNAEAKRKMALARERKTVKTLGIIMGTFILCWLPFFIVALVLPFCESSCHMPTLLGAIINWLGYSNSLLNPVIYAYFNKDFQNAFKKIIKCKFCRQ
Also: assay procedure not described here.

Sequence of Sodium-dependent dopamine transporter (Q01959 whole entry): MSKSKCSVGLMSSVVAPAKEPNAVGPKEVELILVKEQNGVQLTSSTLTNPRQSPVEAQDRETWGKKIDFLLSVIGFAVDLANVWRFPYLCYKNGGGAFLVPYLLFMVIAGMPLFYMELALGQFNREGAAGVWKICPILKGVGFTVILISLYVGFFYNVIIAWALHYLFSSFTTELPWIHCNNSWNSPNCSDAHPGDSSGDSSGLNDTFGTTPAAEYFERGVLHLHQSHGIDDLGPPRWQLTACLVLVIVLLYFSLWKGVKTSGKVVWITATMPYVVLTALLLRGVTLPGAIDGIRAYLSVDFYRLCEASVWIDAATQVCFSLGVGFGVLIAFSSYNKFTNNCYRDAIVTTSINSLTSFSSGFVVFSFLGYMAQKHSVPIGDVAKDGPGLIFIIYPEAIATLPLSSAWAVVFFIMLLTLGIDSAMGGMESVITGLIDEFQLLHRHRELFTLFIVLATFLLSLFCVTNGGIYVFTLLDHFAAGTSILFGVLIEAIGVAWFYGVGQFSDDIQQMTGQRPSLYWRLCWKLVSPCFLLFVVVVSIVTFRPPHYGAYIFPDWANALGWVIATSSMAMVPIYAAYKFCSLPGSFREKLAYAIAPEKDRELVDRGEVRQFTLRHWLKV
Sequence of Delta-type opioid receptor (P41143 whole entry): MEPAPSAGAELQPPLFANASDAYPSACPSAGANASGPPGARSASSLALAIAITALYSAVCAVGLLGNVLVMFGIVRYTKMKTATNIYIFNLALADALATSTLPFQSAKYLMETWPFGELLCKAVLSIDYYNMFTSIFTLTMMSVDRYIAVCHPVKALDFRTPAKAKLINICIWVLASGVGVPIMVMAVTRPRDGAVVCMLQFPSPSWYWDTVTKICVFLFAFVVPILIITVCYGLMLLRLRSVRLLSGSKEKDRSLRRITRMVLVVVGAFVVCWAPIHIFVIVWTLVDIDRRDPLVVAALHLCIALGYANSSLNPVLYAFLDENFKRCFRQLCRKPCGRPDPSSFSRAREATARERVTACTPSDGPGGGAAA
Sequence of D(1A) dopamine receptor (P21728 whole entry): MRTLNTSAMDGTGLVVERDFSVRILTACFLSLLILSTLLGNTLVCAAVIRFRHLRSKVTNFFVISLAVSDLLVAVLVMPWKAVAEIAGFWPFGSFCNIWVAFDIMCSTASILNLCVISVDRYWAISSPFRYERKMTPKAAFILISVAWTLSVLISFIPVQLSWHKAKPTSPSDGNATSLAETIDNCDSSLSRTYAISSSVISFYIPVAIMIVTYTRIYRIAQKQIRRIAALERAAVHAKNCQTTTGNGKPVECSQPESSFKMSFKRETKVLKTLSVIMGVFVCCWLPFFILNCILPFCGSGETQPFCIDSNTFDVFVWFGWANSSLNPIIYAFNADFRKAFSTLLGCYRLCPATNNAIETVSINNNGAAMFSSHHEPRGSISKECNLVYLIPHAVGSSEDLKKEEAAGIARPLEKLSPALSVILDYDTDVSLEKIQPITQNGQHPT
Sequence of Histamine H2 receptor (P25021 whole entry): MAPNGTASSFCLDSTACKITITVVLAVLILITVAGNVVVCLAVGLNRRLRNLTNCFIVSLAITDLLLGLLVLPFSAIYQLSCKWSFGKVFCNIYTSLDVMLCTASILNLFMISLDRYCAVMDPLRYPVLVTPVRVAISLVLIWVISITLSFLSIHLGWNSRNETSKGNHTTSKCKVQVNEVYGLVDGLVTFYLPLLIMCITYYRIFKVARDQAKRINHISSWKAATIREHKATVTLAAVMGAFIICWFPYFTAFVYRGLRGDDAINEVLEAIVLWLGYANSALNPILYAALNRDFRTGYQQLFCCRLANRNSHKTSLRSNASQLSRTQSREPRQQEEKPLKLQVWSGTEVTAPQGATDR
Sequence of 5-hydroxytryptamine receptor 2B (P41595 whole entry): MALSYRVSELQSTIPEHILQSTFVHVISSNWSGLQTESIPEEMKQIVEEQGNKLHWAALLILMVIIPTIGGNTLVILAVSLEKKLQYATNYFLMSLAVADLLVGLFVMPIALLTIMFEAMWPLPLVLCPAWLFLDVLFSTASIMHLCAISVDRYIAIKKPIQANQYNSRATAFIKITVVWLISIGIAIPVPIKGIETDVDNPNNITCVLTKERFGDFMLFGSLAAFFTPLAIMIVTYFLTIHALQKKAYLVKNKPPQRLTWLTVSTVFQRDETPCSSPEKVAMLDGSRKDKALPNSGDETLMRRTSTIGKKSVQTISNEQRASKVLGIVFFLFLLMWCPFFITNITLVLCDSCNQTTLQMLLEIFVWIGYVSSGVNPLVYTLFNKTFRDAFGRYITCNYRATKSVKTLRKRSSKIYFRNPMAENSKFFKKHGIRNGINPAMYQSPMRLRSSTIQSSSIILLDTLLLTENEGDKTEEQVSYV
Sequence of Gamma-aminobutyric acid receptor subunit alpha-1 (P62813 whole entry): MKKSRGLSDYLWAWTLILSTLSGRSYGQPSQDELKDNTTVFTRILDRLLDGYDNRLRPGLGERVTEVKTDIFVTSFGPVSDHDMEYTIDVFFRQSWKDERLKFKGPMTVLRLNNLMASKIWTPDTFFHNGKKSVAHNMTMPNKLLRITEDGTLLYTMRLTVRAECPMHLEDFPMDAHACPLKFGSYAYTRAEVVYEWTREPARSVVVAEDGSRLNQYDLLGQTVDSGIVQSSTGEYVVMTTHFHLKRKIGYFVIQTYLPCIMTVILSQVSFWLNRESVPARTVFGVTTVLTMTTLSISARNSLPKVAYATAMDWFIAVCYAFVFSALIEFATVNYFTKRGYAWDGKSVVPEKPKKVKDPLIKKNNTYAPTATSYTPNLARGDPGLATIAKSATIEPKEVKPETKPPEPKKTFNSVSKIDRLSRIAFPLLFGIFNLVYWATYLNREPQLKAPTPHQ
Sequence of Adenosine receptor A2a (P29274 whole entry): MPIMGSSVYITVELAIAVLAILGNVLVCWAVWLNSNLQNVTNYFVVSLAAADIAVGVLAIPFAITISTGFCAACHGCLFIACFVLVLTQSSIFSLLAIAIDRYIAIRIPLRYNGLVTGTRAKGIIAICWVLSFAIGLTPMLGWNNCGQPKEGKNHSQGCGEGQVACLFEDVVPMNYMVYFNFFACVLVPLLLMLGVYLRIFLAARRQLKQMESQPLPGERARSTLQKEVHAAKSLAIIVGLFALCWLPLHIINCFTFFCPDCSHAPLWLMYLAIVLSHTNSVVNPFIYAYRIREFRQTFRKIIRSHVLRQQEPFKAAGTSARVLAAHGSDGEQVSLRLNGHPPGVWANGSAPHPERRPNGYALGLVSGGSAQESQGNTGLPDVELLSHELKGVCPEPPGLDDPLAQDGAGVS

SMILES: CC1(C)O[C@@H]2C[C@H]3[C@@H]4C[C@H](F)C5=CC(=O)C=C[C@]5(C)[C@@]4(F)[C@@H](O)C[C@]3(C)[C@]2(C(=O)CO)O1 [FLUOCINOLONE ACETONIDE]
AC50 [1]: > 30 µM

SMILES: O=C(O)P(=O)(O)O [FOSCARNET]
AC50 [1]: > 30 µM

SMILES: C[N+](C)(CCCCCC[N+](C)(C)C1c2ccccc2-c2ccccc21)C1c2ccccc2-c2ccccc21 [HEXAFLUORENIUM]
AC50 [1]: 3.09 µM

SMILES: CCCCC(CC)CN1CN(CC(CC)CCCC)CC(C)(N)C1 (stereo not drawn) [HEXETIDINE]
AC50 [1]: > 30 µM

SMILES: Cc1cc(=O)oc2cc(O)ccc12 [HYMECROMONE]
AC50 [1]: > 30 µM

AC50 [2]: > 30 µM | AC50 [3]: > 30 µM | AC50 [4]: > 30 µM | AC50 (D(1A) dopamine receptor): > 30 µM | AC50 (Adenosine receptor A2a): > 30 µM | AC50 [5]: > 30 µM | AC50 [6]: > 30 µM | AC50 [7]: > 30 µM | AC50 (Histamine H2 receptor): > 30 µM | AC50 (Thromboxane A2 receptor): > 30 µM | AC50 [8]: > 30 µM | AC50 [9]: > 30 µM | AC50 [10]: > 30 µM | AC50 [11]: > 30 µM
SMILES: CCCCCCCN(CC)CCCC(O)c1ccc(NS(C)(=O)=O)cc1 (stereo not drawn) [IBUTILIDE]

SMILES: COc1c2occc2c(OC)c2c(=O)cc(C)oc12 [KHELLIN]
AC50 [1]: > 30 µM

SMILES: CC(C)[C@@H]1CC[C@@H](C)C[C@H]1O [LEVOMENTHOL]
AC50 [1]: > 30 µM

SMILES: COC(=O)[C@@H](N)Cc1ccc(O)c(O)c1 [MELEVODOPA]
AC50 [1]: > 30 µM

SMILES: C[N+]1(C)CCCC(OC(=O)C(O)(c2ccccc2)c2ccccc2)C1 (stereo not drawn) [MEPENZOLATE]
AC50 [1]: > 30 µM

SMILES: C=N[C@@H](C(=O)N[C@@H]1C(=O)N2[C@@H]1SC(C)(C)[C@@H]2C(=O)O)c1ccccc1 [METAMPICILLIN]
AC50 [1]: > 30 µM

SMILES: O=C(NNCS(=O)(=O)O)c1ccncc1 [METHANIAZIDE]
AC50 [1]: > 30 µM

SMILES: Cc1cc(=O)[nH]c(=S)[nH]1 [METHYLTHIOURACIL]
AC50 [1]: > 30 µM

SMILES: CN(C)c1ccc(O)c2c1C[C@H]1C[C@H]3[C@H](N(C)C)C(O)=C(C(N)=O)C(=O)[C@@]3(O)C(O)=C1C2=O [MINOCYCLINE]
AC50 [1]: > 30 µM

SMILES: CCNC(=O)/C=C(C)/C=C/C=C(C)/C=C/c1c(C)cc(OC)c(C)c1C [MOTRETINIDE]
AC50 [1]: > 30 µM

SMILES: C=CC(=O)Nc1cccc(Oc2nc(Nc3ccc(N4CCN(C)CC4)cc3)nc3ccsc23)c1 [OLMUTINIB]
AC50 [1]: 4.91 µM

AC50 [2]: > 30 µM | AC50 [3]: > 30 µM | AC50 [4]: > 30 µM | AC50 (D(1A) dopamine receptor): > 30 µM | AC50 (Adenosine receptor A2a): > 30 µM | AC50 [5]: > 30 µM | AC50 [6]: > 30 µM | AC50 [7]: 20 µM | AC50 (Histamine H2 receptor): > 30 µM | AC50 (Thromboxane A2 receptor): > 30 µM | AC50 [8]: > 30 µM | AC50 [9]: > 30 µM | AC50 [10]: > 30 µM | AC50 [11]: > 30 µM
SMILES: Cn1cc(C(=O)[C@@H]2CCc3nc[nH]c3C2)c2ccccc21 [RAMOSETRON]
